Measurements published in patent US11679140B2, “Prevention and/or treatment of hearing loss or impairment” (INSTITUT PASTEUR, priority 2015, dated 2023).
“Also recorded” adds a separate entry of the source.

Tests used:
[1] = test system: Pjvk−/− mice (OHC function); experiment: Distortion-product otoacoustic emissions (DPOAE) in Pjvk−/− mice; type: in vivo, mouse; conditions: antioxidant-treated Pjvk−/− pups, around P21
Description: Auditory tests were performed in an anechoic room. They consisted of distortion-product otoacoustic emissions (DPOAEs), auditory brainstem responses (ABRs), electrically-evoked brainstem responses (EEBRs), and cochlear potentials. Mice were anesthetized with an intraperitoneal injection of a ketamine and levomepromazin mixture (100 mg/kg: 5 mg/kg) and their core temperature was kept at 37° C. with the help of a servo-controlled heating pad. The DPOAE at frequency 2f1-f2 was recorded in response to two equal level primary tones, f1 and f2, with f2/f1=1.20 (CubeDis system, Mimosa Acoustics; ER10B microphone, Etymotic Res.). Frequency f2 was swept at 1/10th octave steps from 4 to 20 kHz, and DPOAE level was plotted against frequency f2 (primary tone levels increased from 20 to 70 dB SPL in 10 dB steps, then to 75 dB SPL). […] ABRs in response to calibrated short tone bursts in the 5-40 kHz range (repetition rate 17/s) were derived from the synchronous averaging of electroencephalograms recorded between subcutaneous stainless steel electrodes at the vertex and ipsilateral mastoid, with the help of a standard digital averaging system (CED1401+). […] Once ABR thresholds had been assessed, ABRs in response to 95 and 105 dB SPL tone bursts (100 averages) were collected for analysis of suprathreshold ABR waveforms, amplitudes and latencies. […]

Pjvk−/− mice = experiment: Auditory brainstem responses (ABR) in Pjvk−/− mice; type: in vivo, mouse; conditions: for recovery of ABR wave I latency and ABR interwave I-IV: treated Pjvk−/− mice
Description: Auditory tests were performed in an anechoic room. They consisted of distortion-product otoacoustic emissions (DPOAEs), auditory brainstem responses (ABRs), electrically-evoked brainstem responses (EEBRs), and cochlear potentials. Mice were anesthetized with an intraperitoneal injection of a ketamine and levomepromazin mixture (100 mg/kg: 5 mg/kg) and their core temperature was kept at 37° C. with the help of a servo-controlled heating pad. The DPOAE at frequency 2f1-f2 was recorded in response to two equal level primary tones, f1 and f2, with f2/f1=1.20 (CubeDis system, Mimosa Acoustics; ER10B microphone, Etymotic Res.). Frequency f2 was swept at 1/10th octave steps from 4 to 20 kHz, and DPOAE level was plotted against frequency f2 (primary tone levels increased from 20 to 70 dB SPL in 10 dB steps, then to 75 dB SPL). DPOAE threshold was defined as the smallest primary level giving rise to a detectable DPOAE. ABRs in response to calibrated short tone bursts in the 5-40 kHz range (repetition rate 17/s) were derived from the synchronous averaging of electroencephalograms recorded between subcutaneous stainless steel electrodes at the vertex and ipsilateral mastoid, with the help of a standard digital averaging system (CED1401+). A hundred responses to the tone bursts were averaged except within 10 dB of the ABR threshold (defined as the smallest tone-burst level giving rise to at least one repeatable wave above noise background level, 150 nV in an anesthetized animal), for which 300 tone bursts were used. Once ABR thresholds had been assessed, ABRs in response to 95 and 105 dB SPL tone bursts (100 averages) were collected for analysis of suprathreshold ABR waveforms, amplitudes and latencies. Controlled sound exposure was applied with the same acoustic probe used for ABRs without moving the sound system, so that pre- and post-exposure ABRs shared the same calibration. Intense stimuli were the same tone-bursts used for ABR measurements at 105 dB SPL, presented 1,000 times at the same repetition rate of 17/s. […]
N-acetyl-L-cysteine (L-NAC; Sigma) or taurine (Sigma) was administrated to pregnant Pjvk^−/− mice in the drinking water. A daily dose of 1% L-NAC or 2% taurine was given to the mother during and after pregnancy, so that pups received them from birth on by feeding on the mother's milk. The treatment was continued until P21, and the auditory function of the treated Pjvk^−/− pups was tested at P21.

[2] = test system: Pjvk−/− mice (auditory neurons); experiment: Electrically-evoked brainstem responses (EEBR) with controlled electrical stimulation in Pjvk−/− mice; type: in vivo, mouse; conditions: for EEBR wave E IV amplitude / resistance to high-rate electrical stimulation: 200/s for 1 minute, treated Pjvk−/− mice
Excerpt: Electrical stimulations of the eighth cranial nerve were delivered by a silver electrode placed in the round-window niche and excited by biphasic electrical impulses (neutral electrode in neck muscles; peak amplitude of electrical stimulus about 0.5 V; duration of the positive and negative phases 150 microseconds; adjustable repetition rate). EEBRs were extracted using the same setup as for ABRs (Roux et al., 2006), in response to 100 electrical impulses presented with alternating polarities (repetition rate 17 Hz). EEBR threshold was defined as the smallest electrical amplitude eliciting repeatable waves above noise background level (the same as for ABRs), labelled from E II to E IV in reference to their ABR equivalents II-IV. Controlled electrical stimulation was applied at 5 dB above EEBR detection threshold with a 200 Hz repetition rate. Occasionally, the silver electrode on the round window served for recording Compound Action Potentials (CAPs) in response to the same tone-bursts used for ABR studies (averages of 32 presentations, repetition rates 17/s), prior to EEBR data collection. These recordings served to check that CAP thresholds and ABR thresholds were within 2 dB of each other at all frequencies, and the exact position of ABR wave I could be ascertained form the larger wave N1, its equivalent on CAP recordings. This was particularly important in mice with abnormally small wave I to avoid incorrect identifications (when wave I was reduced to a very small flattened deflection resembling a summating potential, the slightly larger wave II might have been mistakenly labelled wave I on ABR recordings, while wave N1, even when small, kept its characteristic shape).
Intracochlear viral transduction was carried out as described by Akil et al. (2012). […]
Which cells are the targets of the pejvakin defect, and are they all hypervulnerable to sound exposure? […] Moreover, Electrically-Evoked Brainstem Responses (EEBR) to a direct electric stimulation of the auditory neurons, which test the response of the auditory pathway beyond the cochlea, was also analysed. […]

[3] = test system: mouse embryonic fibroblasts; experiment: H2O2-induced peroxisome proliferation in mouse embryonic fibroblasts; type: cell-based
Description: Fibroblasts were isolated from mouse embryos at embryonic day 13.5 and cultured as described by Xu (2005). The cells were incubated in DMEM (Gibco) supplemented with 0.1 mM β-mercaptoethanol, and 0.5 mM H2O2 for 4 hours at 37° C., under normoxic conditions (95% air). The culture medium was then replaced with H2O2-free medium. Cell viability was checked 18 hours after H2O2 treatment, by measuring mitochondrial reductase activity with the MTT (3-(4,5-dimethylthiazol-2-yl)-2,5-diphenyl tetrazolium bromide) (Sigma M2128) assay. A polyclonal antibody against peroxisome membrane protein 70 (PMP70, Abcam ab3421) was used to label peroxisomes.

[4] = antioxidant-treated Pjvk−/− mice, P21

| SMILES | effect on OHCs (DPOAE) [1] | recovery of ABR wave I latency and ABR interwave I-IV (Pjvk−/− mice; P21) | EEBR wave E IV amplitude / resistance to high-rate electrical stimulation [2] | EEBR wave E IV amplitude / resistance to high-rate electrical stimulation ([2]; listed as NAC) | recovery of neuronal function after high-rate electrical stimulation ([2]; 5 min after high-rate exposure) | protective effect on IHCs and neurons (Pjvk−/− mice; Pjvk−/− mice) | number of auditory neurons that responded to sound stimulation in synchrony (Pjvk−/− mice; Pjvk−/− pups treated via mother's milk) | ABR threshold at 10 kHz (Pjvk−/− mice; antioxidant via mother's drinking water/milk, Pjvk−/− pups tested around P21) [dB SPL] | ABR wave I amplitude (in words) (Pjvk−/− mice; [4]) | ABR wave I latency (Pjvk−/− mice; [4]) [ms] | amplitude of ABR wave I in response to 105 dB SPL (Pjvk−/− mice; [4]) [μV] | ABR interwave I-IV latency (Pjvk−/− mice; antioxidant-treated Pjvk−/− pups, P21) [ms] | ABR thresholds (recovery) (Pjvk−/− mice; antioxidant-treated vs untreated Pjvk−/− pups, P21, listed as NAC) | increase in number of peroxisomes after H2O2 treatment, Pjvk+/+ fibroblasts ([3]; 0.5 mM H2O2, Pjvk+/+ MEFs) [%] | number of peroxisomes after H2O2 treatment, Pjvk−/− fibroblasts ([3]; 0.5 mM H2O2, Pjvk−/− MEFs) |
| --- | --- | --- | --- | --- | --- | --- | --- | --- | --- | --- | --- | --- | --- | --- | --- |
| NCCS(=O)(=O)O [taurine] | no beneficial effect on OHCs | no significant recovery | – | – | – | – | – | – | – | – | – | – | – | – | – |
| CC(=O)N[C@@H](CS)C(=O)O [N-acetyl cysteine, N-acetyl-L-cysteine] | no beneficial effect on OHCs | no significant recovery | resisted to high-rate electric stimulation of auditory pathways better than untreated | remained unaffected | Full recovery of neuronal function | moderate protective effect | restored | 72.2±9.3 | fell within the normative range | 1.55 ± 0.18 | 4.35±1.16 | 2.91 ± 0.32 | slight recovery; also recorded: slightly improved | – | – |
| OO [H2O2] | – | – | – | – | – | – | – | – | – | – | – | – | – | 46 | remained unchanged |
